The test system of data set [1] is CHO-K1 cells. Description: Cell viability, MTS colorimetric assay. The class given is cell-based, Chinese hamster. The note with it: 24 hours; for Cytotoxicity: 30 μM; for Change in survival rate: 100 μM. Here is the method:
Chinese hamster ovary (CHO)-K1 cells were cultured in DMEM medium containing 10% fetal bovine serum (FBS), 100 units/ml of penicillin and 100 μg/ml streptomycin.
The cell viability was measured using the CellTiter 96® AQueous One Solution cell proliferation assay kit (Promega, Madison, WI, USA). CHO-K1 cells were cultured with medium supplemented with 10% FBS in 96-well plates for 24 hours, and then compounds or vehicle were treated in the medium, and after 24 hours, the medium was completely removed, and the MTS assay was performed as recommended in the supplier's protocol. The absorbance of Formazan was measured at a wavelength of 490 nm using an Infinite M200 microplate reader (Tecan, Austria).

Data set [2] deals with T1, human wild-type (WT)-pendrin (Homo sapiens, UniProt O43511).
T1 construct: expressed in transfected cells
T1 sequence (O43511 1-780): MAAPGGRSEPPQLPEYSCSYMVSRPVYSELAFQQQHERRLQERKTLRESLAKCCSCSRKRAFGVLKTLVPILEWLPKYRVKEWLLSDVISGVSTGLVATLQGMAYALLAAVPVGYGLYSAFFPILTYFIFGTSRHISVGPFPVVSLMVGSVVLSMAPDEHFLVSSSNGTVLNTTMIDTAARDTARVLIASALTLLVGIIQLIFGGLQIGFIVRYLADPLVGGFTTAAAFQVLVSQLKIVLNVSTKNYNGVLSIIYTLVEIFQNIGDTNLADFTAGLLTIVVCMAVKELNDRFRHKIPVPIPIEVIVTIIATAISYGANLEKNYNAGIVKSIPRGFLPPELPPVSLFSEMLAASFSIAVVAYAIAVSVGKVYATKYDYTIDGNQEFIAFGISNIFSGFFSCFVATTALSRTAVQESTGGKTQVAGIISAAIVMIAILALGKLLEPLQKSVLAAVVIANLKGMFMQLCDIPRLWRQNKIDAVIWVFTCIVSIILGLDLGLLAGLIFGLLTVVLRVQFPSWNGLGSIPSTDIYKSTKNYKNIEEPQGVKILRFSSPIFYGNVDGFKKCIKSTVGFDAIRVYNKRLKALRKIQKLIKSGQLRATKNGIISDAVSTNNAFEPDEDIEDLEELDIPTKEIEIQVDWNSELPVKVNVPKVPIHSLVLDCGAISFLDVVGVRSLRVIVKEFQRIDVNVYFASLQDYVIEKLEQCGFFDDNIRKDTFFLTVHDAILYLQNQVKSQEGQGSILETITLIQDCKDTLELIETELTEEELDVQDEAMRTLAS
In words: Pendrin Cl−/I− exchange inhibitory activity, YFP fluorescence in CHO-K1 cells. It is filed as cell-based. The note with it: for pIC50: CHO-K1-YFP cells, read-out: IC50 of pendrin-induced Cl−/I− anion exchange; for pIC50 / Inhibition of pendrin-induced Cl−/I− anion exchange: FIG. 1; for inhibition at 1 µM / inhibition at 3 µM / inhibition at 10 µM / inhibition at 30 µM / inhibition at 100 µM: CHO-K1; for inhibition at 1 µM: compound concentration 1 μM; for inhibition at 3 µM: compound concentration 3 μM; for inhibition at 10 µM: compound concentration 10 μM; for inhibition at 30 µM: compound concentration 30 μM; for inhibition at 100 µM: compound concentration 100 μM. Summed up:
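CHO-K1 cells stably co-expressing human WT pendrin and YFP-F46L/H148Q/I152L were preincubated with compound (1–100 µM, or 50 µM single dose) for 10 min at 37°C in HEPES buffer, pH 7.4. NaI solution was then injected and YFP quenching was recorded; the initial iodide influx rate came from the initial fluorescence slope.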

Molecules are shown by their SMILES. pIC50: −log10 of the molar value. Where only a bound is given, the exact number is not on record here.

Usually inhibition stands for how much of the control response was suppressed. Higher therefore signals strong suppression. Consider `Cc1ccc2[nH]c(C(=O)O)c(CC(=O)N3CCN(c4c(C)cccc4Cl)CC3)c2c1` [YPI-A4948, 3-(2-(4-(2-Chloro-6-methylphenyl)piperazin-1-yl)-2-oxoethyl)-5-methyl-1H-indole-2-carboxylic acid], for which, in data set [1], the Cytotoxicity entry is on record as “no cytotoxicity” and the “Change in survival rate” value is “around 10%”. In data set [2], the pIC50 is 6.24, at 1 µM the inhibition was 70.5%, the inhibition at 3 µM was determined as 93.6% and the inhibition at 10 µM stood at 100%. Also, in data set [2], the inhibition at 30 µM worked out at 100%, the inhibition at 100 µM is 100% and the “Inhibition of pendrin-induced Cl−/I− anion exchange” value is on record as “in a concentration-dependent manner”. Also, the “Efficacy on pendrin relative to YPI-H05” value in data set [2] (ratio of IC50 values) is reported as “approximately 5 times”.
Consider `Cc1ccc(C)c(N2CCN(C(=O)Cc3c(C(=O)O)[nH]c4ccc(Cl)cc34)CC2)c1` [YPI-H05, 5-chloro-3-(2-(4-(2,5-dimethylphenyl)piperazin-1-yl-)-2-oxoethyl)-1H-indole-2-carboxylic acid], for which, in data set [1], the Cytotoxicity result is listed as “no cytotoxicity” and the “Change in survival rate” value is “around 10%”. In data set [2], the pIC50 was 5.57, the inhibition at 1 µM is below 20%, the inhibition at 3 µM is 24.6% and the inhibition at 10 µM stood at 67.9%. In addition, in data set [2], the inhibition at 30 µM turned out to be 95.4%, the inhibition at 100 µM was 96.5% and the “Inhibition of pendrin-induced Cl−/I− anion exchange” value was “in a concentration-dependent manner”.

(Values after patent US20240287042A1, “NOVEL COMPOUND HAVING INHIBITORY ACTIVITY AGAINST PENDRIN, AND PHARMACEUTICAL USES THEREOF” (UIF (University Industry Foundation), Yonsei University, priority 2021, published 2024).)
